Test results taken from patent US8940774B2, “Tris-Quaternary Ammonium Salts and Methods for Modulating Neuronal Nicotinic Acetylcholine Receptors” (University of Kentucky Research Foundation, priority 2005, dated 2015).

Molecular target: T1, α3β4 nicotinic receptor subtype expressed in Xenopus oocytes (Rattus norvegicus, UniProt P04757+P12392)
T1 construct: expressed in transfected cells; host or cells: Xenopus laevis oocytes injected with subunit cRNAs
Test: Inhibition of ACh evoked current through nicotinic receptors expressed in Xenopus oocytes (α3β4)
Type: cell-based
Conditions: co-application with acetylcholine; FIG. 2
Experimental: Rat nicotinic receptor cDNAs clones were linearized and purified, and RNA transcripts were prepared in vitro using the appropriate mMessage mMachine kit. Mature (>9 cm) female Xenopus laevis African toads (Nasco, Ft. Atkinson, Wis.), housed in the Division of Lab Animal Resources at the University of Florida were used as a source of oocytes. Prior to surgery, frogs were anesthetized by placing the animal in a 1.5 g/L solution of MS222 for 30 minutes. Oocytes were removed from an incision made in the abdomen. […]
Each oocyte received two initial control applications of ACh, then a nicotine or analog application, and then a follow-up control application of ACh. […] Responses to each nicotine or analog application were calculated relative to the preceding ACh control responses in order to normalize the data, compensating for the varying levels of channel expression among the oocytes. […] Responses for α7 receptors were calculated as net charge (Papke et al., 2002). For subtypes other than α7, responses were calculated from the peak current amplitudes. Means and standard errors (SEM) were calculated from the normalized responses of at least four oocytes for each drug concentration. […]
For concentration-response relations, data derived from net-charge analyses were plotted using Kaleidagraph 3.0.2 (Abelbeck Software; Reading, Pa.) and curves were generated from the Hill equation […]

T1 sequence (P12392 21-495): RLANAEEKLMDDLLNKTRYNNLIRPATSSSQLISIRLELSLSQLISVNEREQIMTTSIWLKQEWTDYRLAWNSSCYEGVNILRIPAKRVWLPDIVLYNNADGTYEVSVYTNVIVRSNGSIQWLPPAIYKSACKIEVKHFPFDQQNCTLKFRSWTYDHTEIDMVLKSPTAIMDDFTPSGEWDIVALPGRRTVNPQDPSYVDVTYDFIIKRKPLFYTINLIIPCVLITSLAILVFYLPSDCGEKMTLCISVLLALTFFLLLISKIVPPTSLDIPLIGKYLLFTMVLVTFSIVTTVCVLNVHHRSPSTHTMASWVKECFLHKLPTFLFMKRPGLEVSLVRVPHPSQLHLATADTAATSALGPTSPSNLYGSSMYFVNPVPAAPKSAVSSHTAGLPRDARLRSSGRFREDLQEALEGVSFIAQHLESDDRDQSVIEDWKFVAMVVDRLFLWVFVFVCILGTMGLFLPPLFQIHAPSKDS
T1 sequence (P04757 26-499): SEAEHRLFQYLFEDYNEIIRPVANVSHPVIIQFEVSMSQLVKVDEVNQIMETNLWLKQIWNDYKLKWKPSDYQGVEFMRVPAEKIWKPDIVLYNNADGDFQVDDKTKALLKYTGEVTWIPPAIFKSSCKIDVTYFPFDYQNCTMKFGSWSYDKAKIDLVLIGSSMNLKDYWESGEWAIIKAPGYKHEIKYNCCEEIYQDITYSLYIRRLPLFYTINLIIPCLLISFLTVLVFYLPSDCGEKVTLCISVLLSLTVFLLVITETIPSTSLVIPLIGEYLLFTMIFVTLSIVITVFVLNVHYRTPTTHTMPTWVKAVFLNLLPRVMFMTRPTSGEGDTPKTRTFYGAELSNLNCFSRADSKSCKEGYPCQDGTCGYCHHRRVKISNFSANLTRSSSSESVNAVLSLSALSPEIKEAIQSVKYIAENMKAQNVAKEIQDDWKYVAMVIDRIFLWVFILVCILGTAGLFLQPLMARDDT

Compound: CN1CCC[C@H]1c1ccc[n+](CCCC#Cc2cc(C#CCCC[n+]3cccc([C@@H]4CCCN4C)c3)cc(C#CCCC[n+]3cccc([C@@H]4CCCN4C)c3)c2)c1 [GZ551B, 1,3,5-tris-{5-[3-(1-methyl-2-S-pyrrolidinyl)pyridinium]-pent-1-ynyl}-benzene tribromide]
- inhibition of ACh response at α3β4 nicotinic receptor subtype (in words): potently inhibited
